The assay has as its target T1, Recombinant KAT6A/MOZ (488-778) protein (Homo sapiens, UniProt Q92794).
T1 construct: Recombinant KAT6A/MOZ (488-778) protein (Active motif, Catalog #81223); purchased Active Motif 81223
As to the kind of experiment: Kat6a AlphaLISA Inhibition Screening Assay. Format: biochemical. Particulars: 60′ pre-incubation; Table 3; read-out: Kat6A Biochemical assay: IC50. The method in brief:
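Recombinant KAT6A (488-778), 25 nM, was preincubated with compound (10-point dose response) for 60 or 10 min. It then reacted 120 min at room temperature with 200 nM biotin-H3(1-21) peptide and 400 nM acetyl-CoA, pH 8.0, with 330 nM TSA present. Acetylation was detected by AlphaLISA (anti-acetyl-lysine acceptor, streptavidin donor beads).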
(In Alpha technology, singlet oxygen from a donor bead excites a nearby acceptor bead.)

T1 sequence (Q92794 488-778): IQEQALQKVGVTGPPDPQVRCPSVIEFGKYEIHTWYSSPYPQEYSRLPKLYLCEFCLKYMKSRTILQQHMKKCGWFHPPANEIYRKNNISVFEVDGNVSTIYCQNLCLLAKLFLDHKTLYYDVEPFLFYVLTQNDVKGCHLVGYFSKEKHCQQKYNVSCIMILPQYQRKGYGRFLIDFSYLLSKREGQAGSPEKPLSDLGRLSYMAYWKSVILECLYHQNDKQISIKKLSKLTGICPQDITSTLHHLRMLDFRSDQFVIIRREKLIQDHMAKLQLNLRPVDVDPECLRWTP

In the case of `C=CS(=O)(=O)NCC(=O)NCc1cnn(Cc2cc(OC)c3c(NS(=O)(=O)c4cc(CC)ccc4OC)noc3c2)c1` [compound 93, N-((1-((3-((5-ethyl-2-methoxyphenyl)sulfonamido)-4-methoxybenzo[d]isoxazol-6-yl)methyl)-1H-pyrazol-4-yl)methyl)-2-(vinylsulfonamido) acetamide], the IC50 (commonly the concentration needed to halve the response being measured) is not above 10 µM.
Next, `C#CC(=O)NCCNC(=O)c1cnn(Cc2cc(OC)c3c(NS(=O)(=O)c4cc(CC)ccc4OC)noc3c2)c1` [compound 94, 1-((3-((5-ethyl-2-methoxyphenyl)sulfonamido)-4-methoxybenzo[d]isoxazol-6-yl)methyl)-N-(2-propiolamidoethyl)-1H-pyrazole-4-carboxamide]: not above 10 µM.
Next, `C#CC(=O)N1CCN(C(=O)c2cnn(Cc3cc(OC)c4c(NS(=O)(=O)c5cc(CC)ccc5OC)noc4c3)c2)CC1` [compound 95, 5-ethyl-2-methoxy-N-(4-methoxy-6-((4-(4-propioloylpiperazine-1-carbonyl)-1H-pyrazol-1-yl)methyl)benzo[d]isoxazol-3-yl)benzenesulfonamide]: not above 10 µM; `C#CC(=O)N1CCN(c2cccc(-c3cc(OC)c4c(NS(=O)(=O)c5c(OC)cccc5OC)noc4c3)n2)CC1` [compound 96, 2,6-dimethoxy-N-(4-methoxy-6-(6-(4-propioloylpiperazin-1-yl)pyridin-2-yl)benzo[d]isoxazol-3-yl)benzenesulfonamide]: not above 10 µM; `C#CC(=O)N1CCN(c2nc(-c3cc(OC)c4c(NS(=O)(=O)c5c(OC)cccc5OC)noc4c3)cs2)CC1` [compound 97, 2,6-dimethoxy-N-(4-methoxy-6-(2-(4-propioloylpiperazin-1-yl)thiazol-4-yl)benzo[d]isoxazol-3-yl)benzenesulfonamide]: not above 10 µM.
In the case of `C#CC(=O)N1CCN(c2cccc(-c3cc(OC)c4c(NS(=O)(=O)c5cc(CC)ccc5OC)noc4c3)c2)CC1` [compound 98, 5-ethyl-2-methoxy-N-(4-methoxy-6-(3-(4-propioloylpiperazin-1-yl)phenyl)benzo[d]isoxazol-3-yl) benzenesulfonamide] it was not above 10 µM.
For the compound `C#CC(=O)N1Cc2cnn(Cc3cc(OC)c4c(NS(=O)(=O)c5cc(CC)ccc5OC)noc4c3)c2C1` [compound 99, 5-ethyl-2-methoxy-N-(4-methoxy-6-((5-propioloyl-5,6-dihydropyrrolo[3,4-c]pyrazol-1(4H)-yl)methyl)benzo[d]isoxazol-3-yl)benzenesulfonamide], the IC50 was not above 10 µM.
In the case of `C#CC(=O)N1CCCN(c2cccc(-c3cc(OC)c4c(NS(=O)(=O)c5c(OC)cccc5OC)noc4c3)c2)CC1` [compound 100, 2,6-dimethoxy-N-(4-methoxy-6-(3-(4-propioloyl-1,4-diazepan-1-yl)phenyl)benzo[d]isoxazol-3-yl)benzenesulfonamide] it was not above 10 µM.
Take `C#CC(=O)N1CCC(c2cccc(-c3cc(OC)c4c(NS(=O)(=O)c5c(OC)cccc5OC)noc4c3)c2)CC1` [compound 101, 2,6-dimethoxy-N-(4-methoxy-6-(3-(1-propioloylpiperidin-4-yl)phenyl)benzo[d]isoxazol-3-yl) benzenesulfonamide]: the IC50 was not above 10 µM.
In the case of `C#CC(=O)N1CCN(c2cnc(-c3cc(OC)c4c(NS(=O)(=O)c5c(OC)cccc5OC)noc4c3)s2)CC1` [compound 102, 2,6-dimethoxy-N-(4-methoxy-6-(5-(4-propioloylpiperazin-1-yl)thiazol-2-yl)benzo[d]isoxazol-3-yl)benzenesulfonamide] it was not above 10 µM; in that of `C#CC(=O)N1CCN(c2ccnc(-c3cc(C)cc(C(=O)NNS(=O)(=O)c4ccccc4F)c3)c2)CC1` [compound 103, 2-fluoro-N′-(3-methyl-5-(4-(4-propioloylpiperazin-1-yl)pyridin-2-yl)benzoyl) benzenesulfonohydrazide], not above 10 µM; in that of `C#CC(=O)N1CCCN(c2cnc(-c3cc(OC)c4c(NS(=O)(=O)c5cc(CC)ccc5OC)noc4c3)s2)CC1` [compound 104, 5-ethyl-2-methoxy-N-(4-methoxy-6-(5-(4-propioloyl-1,4-diazepan-1-yl)thiazol-2-yl)benzo[d]isoxazol-3-yl) benzenesulfonamide], not above 10 µM.
Next, `C#CC(=O)N1CCN(c2ncc(-c3cc(OC)c4c(NS(=O)(=O)c5c(OC)cccc5OC)noc4c3)s2)CC1` [compound 106, 2,6-dimethoxy-N-(4-methoxy-6-(2-(4-propioloylpiperazin-1-yl)thiazol-5-yl)benzo[d]isoxazol-3-yl) benzenesulfonamide]: not above 10 µM; `C=CS(=O)(=O)NCCOCc1cc(OC)c2c(NS(=O)(=O)c3cc(CC)ccc3OC)noc2c1` [compound 107]: not above 10 µM.
In the case of `CCS(=O)(=O)NCc1cnn(Cc2cc(OC)c3c(NS(=O)(=O)c4c(OC)cccc4OC)noc3c2)c1` [compound 108] it was not above 10 µM.
For the compound `C#CC(=O)N1CC[C@H](OCc2cc(OC)c3c(NS(=O)(=O)c4cc(CC)ccc4OC)noc3c2)C1` [compound 109, (S)-5-ethyl-2-methoxy-N-(4-methoxy-6-(((1-propioloylpyrrolidin-3-yl)oxy)methyl)benzo[d]isoxazol-3-yl) benzenesulfonamide], the IC50 is not above 10 µM.
Next, `C#CC(=O)N1CC[C@@H](OCc2cc(OC)c3c(NS(=O)(=O)c4cc(CC)ccc4OC)noc3c2)C1` [compound 110, (R)-5-ethyl-2-methoxy-N-(4-methoxy-6-(((1-propioloylpyrrolidin-3-yl)oxy)methyl)benzo[d]isoxazol-3-yl) benzenesulfonamide]: not above 10 µM.
Next, `C#CC(=O)N1CCN(c2cccc(-c3cc(OC)c4c(NS(=O)(=O)NC5CCCCC5)noc4c3)c2)CC1` [compound 111]: not above 10 µM.
Next, `C#CC(=O)N1CCN(c2cccc(-c3cc(OC)c4c(NS(=O)(=O)N(C)C5CCCCC5)noc4c3)c2)CC1` [compound 112, 3-[[cyclohexyl(methyl)sulfamoyl]amino]-4-methoxy-6-[3-(4-prop-2-ynoylpiperazin-1-yl)phenyl]-1,2-benzoxazole]: not above 10 µM; `C#CC(=O)N1CCN(c2cccc(-c3cc(OC)c4c(NS(=O)(=O)c5c(OC)cccc5OC)noc4n3)c2)CC1` [compound 113, 2,6-dimethoxy-N-(4-methoxy-6-(3-(4-propioloylpiperazin-1-yl)phenyl)isoxazolo[5,4-b]pyridin-3-yl)benzenesulfonamide]: not above 10 µM.
On to `C#CC(=O)N1CCN(c2cccc(-c3cc(OC)c4c(NS(=O)(=O)c5cc(CC)ccc5OC)noc4n3)c2)CC1` [compound 114, 25-ethyl-2-methoxy-N-(4-methoxy-6-(3-(4-propioloylpiperazin-1-yl)phenyl)isoxazolo[5,4-b]pyridin-3-yl)benzenesulfonamide], for which the IC50 was more than 10 µM.
On to `C#CC(=O)N1CCN(c2cc(O)cc(-c3cc(OC)c4c(NS(=O)(=O)c5c(OC)cccc5OC)noc4c3)c2)CC1` [compound 115, N-(6-(3-hydroxy-5-(4-propioloylpiperazin-1-yl)phenyl)-4-methoxybenzo[d]isoxazol-3-yl)-2,6-dimethoxybenzenesulfonamide], for which the IC50 was not above 10 µM.
For `CCc1ccc(OC)c(S(=O)(=O)Nc2noc3cc(Cn4cc(CNS(C)(=O)=O)cn4)cc(OC)c23)c1` [compound 116], the IC50 was not above 10 µM.

The values above are taken from patent publication US11976075B2, “Inhibitors of the MYST family of lysine acetyl transferases” (Isosterix, Inc., priority 2022, dated 2024).
